Measured values: patent US11084836B2, “Compositions useful in therapy of autophagy-related pathologies, and methods of making and using the same” (The University of Toledo, priority 2016, dated 2021)
“Also recorded” adds a separate entry of the source.

Columns and labels:
[1] = tested on: RG2 glioma cells; test: Autophagic flux assay: LC3-I to LC3-II conversion in the presence of bafilomycin-A1, western blot; format: cell-based, rat; conditions: for stimulation of autophagy / autophagic flux (LC3-II increase in presence of bafilomycin-A1): 4 h, 50 nM bafilomycin-A1; for potency of autophagy stimulation relative to LKE (ratio of LC3-II band densities): western blot densitometry
Experimental: In the assay, cells are treated with subtoxic concentrations of bafilomycin-A, which blocks lysosomal acidification. This prevents autophagosome fusion with lysosomes at a specific point. […] Then, autophagy flux is measured by the conjugation of phosphatidylethanolamine to LC3-I, yielding an electrophoretically separable LC3-II. LC3-II acts as a link between nascent autophagosomes and cargo being directed into these structures. The autophagy intermediate protein LC3-II (a phosphatidylethanolamine-conjugated form of LC3-I) is measured by western blot. An autophagy enhancer will increase LC3-II in the presence of bafilomycin, whereas a compound that inhibits autophagy completion will not do so. Thus, the LC3A-I to LC3A-II conversion in the presence of bafilomycin-A1 constitutes a valid measure of autophagy.
Autophagy is a complex process involving many different protein components, but predominant amongst its regulatory elements are the mammalian target of rapamycin complex-1 (mTORC1) and unc-51-like kinase-1 (ULK1, FIG. 14). mTORC1 is itself a kinase that inhibits ULK1. When nutrients and cell energy are limiting, mTORC1 is suppressed by the coordinated actions of tuberous sclerosis complex (TSC) proteins 1 and 2 (TSC1/2) and Rheb (Ras homolog enriched in the brain). This allows disinhibition of ULK1, which then associates with beclin-1 protein to form pre-autophagosomal structures. Autophagosomes mature in a process marked by phosphatidylethanolamine conjugation to microtubule associated protein 1 light chain 3 (LC3-I→LC3-II conversion). After lysosomal fusion, the autophagy components are turned over and the cycle completes. One of the most reliable ways to determine whether a treatment increases true autophagy flux is to measure LC3-I to LC3-II conversion in the absence and presence of the vacuolar ATPase inhibitor bafilomycin-A1. Bafilomycin neutralizes lysosomal pH, preventing autophagosome-lysosomal fusion, and traps LC3-II at a point prior to its turnover in mature autophagolysosomes.
The cells were then incubated for an additional 4 h. At termination, the cell culture medium was removed, cells were washed with PBS and lysed on ice in Pierce RIPA buffer containing protease and phosphatase inhibitors.
An increase in the intensity of this band in the presence of bafilomycin-A1 indicates increased autophagic flux.
RG2 glioma cells (American Tissue Type Collection, ATTC, Rockville Md. USA) were treated for 4 h with 50 nM bafilomycin-A1 (previously dissolved to 1000× final concentration in dimethylsulfoxide). Thirty minutes after addition of bafilomycin, cells were treated with test agents at 100× final concentration. Cells were lysed in RIPA buffer containing protease and phosphatase inhibitors. Protein concentration was assayed and normalized to constant values (typically 5-7 mg/mL). Proteins were electrophoresed across 4-20% polyacrylamide gels and wet blotted onto polyvinylidine difluoride (PVDF) membranes. Proteins were blotted with commercially available antibodies against LC3.

[2] = Stability of the isolated solid under high vacuum; format: physicochemical; conditions: isolated white solid, at least overnight
Experimental: FIGS. 15A-15B show the ^1H NMR spectrum of 2-butyl-LK-P, with and without peak assignments. FIGS. 16A-16B show the ^1H NMR spectrum of 2-butyl-LK-P, with integration values and with and without peak assignments. ^1H NMR (CDCl3) δ 3.96 (br. s., 1H), 3.05 (d, J=12.4 Hz, 1H), 2.84-2.66 (m, 1H), 2.36 (br. s., 2H), 1.56-1.32 (m, 2H), 1.24 (d, J=6.2 Hz, 2H), 0.89-0.77 (m, 3H); HRMS (ESI) m/z calcd for C9H17NO5PS [M+H]^+ 282.0565, found 282.0645.
Briefly, to a solution of DEIVP (500.0 mg, 2.222 mmol), in a biotage microwave vial, was added bromotrimethylsilane (1.333 mL, […]). The tube was purged with argon, covered and heated at 400 W for 10 min. The contents of the vial were transferred to a round bottom flask, the vial was washed with dichloromethane (3×3 mL) which was transferred to the flask. The solvent and excess bromotrimethylsilane were removed in vacuo. To the flask was added dichloromethane (10 mL), which was subsequently removed in vacuo to aid in the removal of any residual bromotrimethylsilane. To the flask was added dichloromethane (9 mL) and, to this solution, with stirring, was added a solution of bromine ([…]) in dichloromethane (3 mL). The resultant solution was heated to reflux for 15 min and the solvent was removed in vacuo. […]

[3] = tested on: EOC-20 microglia; test: TNFα-stimulated microglial M1 activation, nitrite accumulation in culture medium; format: cell-based; conditions: cytokine (TNFα)-stimulated EOC-20 microglia, side-by-side
Experimental: Reaction completion was monitored by thin-layer chromatography and product identity was confirmed by mass spectrometry (FIG. 31A). […] M1 activation of EOC-20 cells was assessed by measuring TNFα-stimulated nitrite production.

[4] = tested on: RG2 glioma cells; test: Proliferative capacity of glioma cells, tetrazolium reduction assay; format: cell-based, rat
Experimental: FIG. 37: Graph showing a reduction in proliferative capacity of RG2 glioma cells exposed to 2-n-hexyl-LKE-P. Glioma cells were plated at low density and treated with the indicated concentration of compound for 24 or 48 h, at which time relative cell number was estimated using a tetrazolium reduction assay.
Biomarkers of autophagy have been positively correlated with relatively better prognosis (longer patient lifespan) in humans suffering from high grade glioma. Accordingly, phosphonate analogs were tested for ability to reduce replicative capacity in RG2 glioma cells wherein the compounds increase autophagy. Cells were plated at low density (approximately 25,000 cells/[…]) using general cell culture methods, and treated with logarithmic dilutions of test agent. After 24 or 48 hours, cell number was estimated by a tetrazolium reduction assay using a commercially available kit (Promega Aqueous OneStep™). […] By 48 h the cells had largely achieved confluence and became somewhat contact inhibited, thus reducing the difference between control and treatment groups.

[5] = cell systems and C. elegans; cited from earlier work
[6] = tested on: SOD1^G93A mouse model of amyotrophic lateral sclerosis; conditions: cited from earlier work
[7] = tested on: permanent middle cerebral artery occlusion (pMCAO); conditions: after pMCAO; cited from earlier work
[8] = tested on: CRMP2; conditions: CRMP2-dependent fashion; cited from earlier work
[9] = tested on: 3×Tg-AD mouse model of Alzheimer's disease; conditions: cited from earlier work
[10] = tested on: cells; conditions: H2O2 or t-butyl hydroperoxide; cited from earlier work
[11] = tested on: SHSY5Y neurons; conditions: cited from earlier work
[12] = tested on: microglia; conditions: cell systems; cited from earlier work
[13] = tested on: C6 glioma tumor; conditions: C6 glioma xenograft into rat cortices; cited from earlier work
[14] = measurement of brain LKE levels and animal studies
[15] = tested on: neurons; conditions: glutamate toxicity; cited from earlier work
[16] = tested on: ULK1 system; test: ULK1 / ULK1(p757) autophagy stimulation assay (mTOR pathway), western blot; format: cell-based, rat; conditions: RG2 cells, 24 h; read-out: EC50 on the ULK1 system (ULK1 increase and ULK1(p757) decrease)
Description: This technique has been documented in the literature for use in the comparison of the potency of individual compounds, relative to a recognized standard, and this technique has become a standard method of autophagy analysis. In addition to quantitating the stimulation of autophagy for the compounds, relative to LKE, because it is cell based, this assay also provides evidence that the compounds can permeate cell membranes. This affords valuable information for the comparison of individual compounds to stimulate autophagy, and will allow them to be ranked for use in the determination of a structure activity relationship (SAR). […] For validation purposes, a second, quantitative autophagy stimulation assay was utilized. […] This second assay provides validation for the LC3 assay.
Western Blotting: The proteins were electrophoresed and wet-blotted to polyvinylidine difluoride membranes, blocked overnight in 4% bovine serum albumin, and developed using antibodies obtained from Cell Signaling Technology (LC3A: cat #. 4599; ULK1: cat #. 8054, ULK1(p757): cat #. 6880).

## CCCCC1=C(P(=O)(O)O)N[C@H](C(=O)O)CS1
[1]
  stimulation of autophagy / autophagic flux (LC3-II increase in presence of bafilomycin-A1): enter into cells and stimulate autophagy to varying degrees
  potency of autophagy stimulation relative to LKE (ratio of LC3-II band densities): comparable activity
[1]; listed as 2-butyl-LK-P
  potency of autophagy stimulation relative to LKE (ratio of LC3-II band densities): more effective at inducing autophagic flux than, inter alia, LK-E
[2]
  stability to high vacuum pressures: stable to high vacuum pressures at least overnight without visual or spectral decomposition

## CCOC(=O)[C@@H]1CSC(C(C)N2CCCC2=O)=C(C(=O)O)N1 (single isomer, unassigned) [NVP-LKE]
[1]
  stimulation of autophagy / autophagic flux (LC3-II increase in presence of bafilomycin-A1): stimulates autophagy in RG2 cells
  potency of autophagy stimulation relative to LKE (ratio of LC3-II band densities): better autophagy activation than LKE; also recorded: more potent autophagy stimulator than LKE
[3]
  suppression of nitric oxide (nitrite) production / microglial activation relative to LKE: maintains or gains potency over LKE; also recorded: equal or superior to LKE; also recorded: as potent or more potent than LKE

## CC(C)C1=C(P(=O)(O)O)NCCS1 [2-isopropyl AECK-P, AminoEthyl Cysteine Ketimine-Phosphonate]
[1]
  stimulation of autophagy / autophagic flux (LC3-II increase in presence of bafilomycin-A1): can enter cells to elicit a response
  potency of autophagy stimulation relative to LKE (ratio of LC3-II band densities): comparable activity

## CC(C)C1=C(P(=O)(O)O)N[C@H](C(=O)O)CS1 [2-isopropyl-LK-P, 2-isopropyl lanthionine ketimine phosphonate]
[1]
  stimulation of autophagy / autophagic flux (LC3-II increase in presence of bafilomycin-A1): stimulates autophagy in RG2 cells at low micromolar concentrations; also recorded: enter into cells and stimulate autophagy to varying degrees; also recorded: increase autophagic flux
  potency of autophagy stimulation relative to LKE (ratio of LC3-II band densities): comparable activity
[1]; at 10 μM
  potency on autophagic flux relative to LK: clearly more potent at 10 μM than LK was
[1]; at 10 mM (FIG. 6 legend)
  potency on autophagic flux relative to LK: clearly was more potent at 10 mM than was LK
[1]; visual inspection of western blot
  potency of autophagy stimulation relative to LK: much more potent stimulator of autophagy than LK
[2]
  stability to high vacuum pressures: stable to high vacuum pressures at least overnight without visual or spectral decomposition

## CCCCCCC1=C(P(=O)(O)O)N[C@H](C(=O)OCC)CS1 [2-n-hexyl-LKE-P]
[4]; 48 h
  cell number: dose-dependent reduction in the cell number
[4]; first 24 h
  replication of cultures: replicated more slowly

## O=C(O)C1=CSC[C@@H](C(=O)O)N1 [LK, (5R)-3,5,-dicarboxy-1-thia-4-aza-2-cyclohexene, reference compound]
[1]
  stimulation of autophagy / autophagic flux (LC3-II increase in presence of bafilomycin-A1): increase autophagic flux

## CCOC(=O)C1CSC=C(C(=O)O)N1 (stereo not shown) [LKE, lanthionine ketimine-ethyl ester]
[1]
  stimulation of autophagy / autophagic flux (LC3-II increase in presence of bafilomycin-A1): enter into cells and stimulate autophagy to varying degrees
[5]
  axonal transport enhancement: potentiating anterograde trafficking and delivery of synaptic proteins to the distal axon
[6]
  lifespan and motor function: increases lifespan and slows decline of motor function
[7]
  infarct volume and functional recovery: decreases infarct volume and improves functional recovery
[8]
  neurotrophic activity: potentiating growth factor-dependent neurite growth
[9]
  amyloid burden, phospho-tau, microglial activation, cognitive decline: decreases amyloid burden inside neurons and in plaques, decreases phospho-tau accumulation, decreases microglial activation, and slows cognitive decline
[10]
  antioxidant activity: protecting cells against H2O2 or t-butyl hydroperoxide
[11]
  amyloid reducing activity: decreasing production of native Aβ(1-40)
[12]
  anti-neuroinflammatory activity: decreasing microglial response to inflammatory cytokines
[13]
  tumor growth: slows growth of C6 glioma tumor
[14]
  βββ penetrability: good βββ penetrability
[15]
  anti-excitotoxin activity: protecting neurons from glutamate toxicity
[16]
  EC50: ~50 nM
